Reference: ChEMBL document CHEMBL2311480, “Inhibitors of apoptosis in testicular germ cells: synthesis and biological evaluation of some novel IBTs bearing sulfonamide moiety” (2013)

Experiment: Inhibition of malathion-induced apoptosis in goat testicular germ cells assessed as cell survival at 10 uM (malathion treated control = 41 +/- 6.24%)
Format: functional
Conditions: Capra hircus; read-out: Survival

| SMILES | viability at 10 µM |
| --- | --- |
| NS(=O)(=O)c1ccc2c(c1)sc1nc(-c3ccc(Cl)cc3)cn12 | 56% |
| NS(=O)(=O)c1ccc2c(c1)sc1nc(-c3cc4ccccc4oc3=O)cn12 | 46% |
| NS(=O)(=O)c1ccc2c(c1)sc1nc(-c3cc4cc(Br)ccc4oc3=O)cn12 | 48% |
| NS(=O)(=O)c1ccc2c(c1)sc1nc(-c3ccc([N+](=O)[O-])cc3)cn12 | 39% |
| NS(=O)(=O)c1ccc2c(c1)sc1nc(-c3ccccc3)cn12 | 50% |
| CCOC(=O)CC(SP(=S)(OC)OC)C(=O)OCC (stereo not given) [MALATHION] | 41% |
| Cc1ccc(-c2cn3c(n2)sc2cc(S(N)(=O)=O)ccc23)cc1 | 64% |
| NS(=O)(=O)c1ccc2c(c1)sc1nc(-c3ccc(Br)cc3)cn12 | 52% |
| NS(=O)(=O)c1ccc2c(c1)sc1nc(-c3cc4cc(Cl)ccc4oc3=O)cn12 | 61% |
| NS(=O)(=O)c1ccc2c(c1)sc1nc(-c3ccc(F)cc3)cn12 | 43% |
